Experimental data published in ChEMBL document CHEMBL5050844 (2019).
Each block holds one compound with its values, some of them ahead of it.

Experiments:
[1] = biological target: E3 ubiquitin-protein ligase CBL-B (Homo sapiens, UniProt Q13191); assay: Inhibition of N-terminal Avi-tagged human CBL-B (36 to 427 residues) incubated with 60 nM Src kinase for 1.5 hrs followed by incubation with fluorescently labeled UbcH5B-Ub for 1 hr and measured by TR-FRET assay; type: single protein
[2] = Induction of anti-CD3/CD28 antibodies-stimulated human T cell activation at 1 uM assessed fold increase in IL-2 secretion measured by ELISA assay; type: functional, T cell line
[3] = Induction of anti-CD3/CD28 antibodies-stimulated human T cell activation at 0.3 uM assessed fold increase in IL-2 secretion measured by ELISA assay; type: functional, T cell line
[4] = Induction of anti-CD3 antibodies-stimulated human T cell activation at 1 uM assessed fold increase in IL-2 secretion measured by ELISA assay; type: functional, T cell line; further: reference of the scale not given here
[5] = Induction of anti-CD3/CD28 antibodies-stimulated human T cell activation at 1 uM assessed fold increase in CD25 expression measured by ELISA assay; type: functional, T cell line
[6] = Induction of anti-CD3/CD28 antibodies-stimulated human T cell activation at 0.3 uM assessed fold increase in CD25 expression measured by ELISA assay; type: functional, T cell line
[7] = Induction of anti-CD3 antibodies-stimulated human T cell activation at 1 uM assessed fold increase in CD25 expression measured by ELISA assay; type: functional, T cell line; further: reference of the scale not given here

E3 ubiquitin-protein ligase CBL-B, sequence (Q13191 whole entry, the tested form may be a part): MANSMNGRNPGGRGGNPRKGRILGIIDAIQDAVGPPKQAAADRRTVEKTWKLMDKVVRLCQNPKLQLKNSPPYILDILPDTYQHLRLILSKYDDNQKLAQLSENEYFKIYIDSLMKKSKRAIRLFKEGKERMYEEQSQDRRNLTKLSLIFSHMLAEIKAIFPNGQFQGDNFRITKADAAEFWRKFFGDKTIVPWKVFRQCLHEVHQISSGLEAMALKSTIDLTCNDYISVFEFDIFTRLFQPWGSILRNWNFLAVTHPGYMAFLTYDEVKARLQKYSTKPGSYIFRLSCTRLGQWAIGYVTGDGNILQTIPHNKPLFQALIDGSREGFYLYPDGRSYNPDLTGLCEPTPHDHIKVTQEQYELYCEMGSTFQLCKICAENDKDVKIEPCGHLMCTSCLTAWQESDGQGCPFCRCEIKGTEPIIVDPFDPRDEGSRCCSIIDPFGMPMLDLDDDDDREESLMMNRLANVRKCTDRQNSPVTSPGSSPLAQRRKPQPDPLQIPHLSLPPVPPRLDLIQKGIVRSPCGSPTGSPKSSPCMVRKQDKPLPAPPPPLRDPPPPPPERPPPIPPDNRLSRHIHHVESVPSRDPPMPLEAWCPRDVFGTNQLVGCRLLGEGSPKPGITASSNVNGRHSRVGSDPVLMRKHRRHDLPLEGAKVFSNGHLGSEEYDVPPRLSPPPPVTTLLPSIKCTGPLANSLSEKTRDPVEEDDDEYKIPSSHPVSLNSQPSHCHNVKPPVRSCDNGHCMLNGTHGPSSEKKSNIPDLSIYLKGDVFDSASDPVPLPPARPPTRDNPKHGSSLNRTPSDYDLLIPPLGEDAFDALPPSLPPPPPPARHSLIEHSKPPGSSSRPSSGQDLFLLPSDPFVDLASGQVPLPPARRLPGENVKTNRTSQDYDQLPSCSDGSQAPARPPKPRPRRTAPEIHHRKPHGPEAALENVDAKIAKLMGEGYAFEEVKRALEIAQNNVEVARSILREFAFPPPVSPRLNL

Structure (SMILES): C[C@@H]1CCN(Cc2cc3c(c(C(F)(F)F)c2)CN(c2cccc(C4(Cc5nncn5C)COC4)c2)C3=O)C[C@H]1F (relative stereo)
IC50 [1]: < 100 nM | fold change (FC) [2]: >=7.5 | fold change (FC) [3]: >=7.5 | fold change (FC) [4]: >=0.201 | fold change (FC) [5]: 1.51 | fold change (FC) [6]: 1.31 | fold change (FC) [7]: >=1.001

Structure (SMILES): CCOc1cc(N2Cc3c(cc([C@H](C)N4CC[C@H](F)C4)cc3C(F)(F)F)C2=O)cc(C2(Cc3nncn3C)COC2)c1
IC50 [1]: < 100 nM | fold change (FC) [2]: >=7.5 | fold change (FC) [3]: 2.51 | fold change (FC) [4]: 0.151 | fold change (FC) [5]: 1.51 | fold change (FC) [6]: 1.31 | fold change (FC) [7]: >=1.001

Structure (SMILES): Cc1cc2c(c(C3CC3)n1)CN(c1cccc(C3(C(F)(F)c4nncn4C)COC3)c1)C2=O
IC50 [1]: < 100 nM | fold change (FC) [2]: 1.01 | fold change (FC) [3]: 1.01 | fold change (FC) [4]: 0.051 | fold change (FC) [5]: 1.01 | fold change (FC) [6]: 1.01 | fold change (FC) [7]: 0.601

Structure (SMILES): Cn1cnnc1CC1(c2cccc(N3Cc4c(cc(CN5CC[C@H](c6ccccc6)C5)cc4C(F)(F)F)C3=O)c2)COC1
IC50 [1]: < 100 nM | fold change (FC) [2]: >=7.5 | fold change (FC) [3]: 5 | fold change (FC) [4]: >=0.201 | fold change (FC) [5]: 1.01 | fold change (FC) [6]: 1.01 | fold change (FC) [7]: >=1.001

Structure (SMILES): CC1CCN(Cc2cc3c(c(C(F)(F)F)c2)CN(c2cccc(C4(Cc5nncn5C)COC4)c2)C3=O)CC1(F)F (stereo unspecified)
IC50 [1]: < 100 nM | fold change (FC) [2]: >=7.5 | fold change (FC) [3]: >=7.5 | fold change (FC) [4]: >=0.201 | fold change (FC) [5]: 1.31 | fold change (FC) [6]: 1.31 | fold change (FC) [7]: >=1.001

Structure (SMILES): Cn1cnnc1[C@H](F)C1(c2cccc(N3Cc4c(cc(CN5C6CCCC5CC6)cc4C(F)(F)F)C3=O)c2)COC1 (stereo in doubt; 671b)
IC50 [1]: < 100 nM | fold change (FC) [2]: >=7.5 | fold change (FC) [3]: >=7.5 | fold change (FC) [4]: >=0.201 | fold change (FC) ([5]; 1 µM): >=1.76 | fold change (FC) ([6]; 0.3 µM): >=1.76 | fold change (FC) [7]: >=1.001

Structure (SMILES): Cn1cnnc1CC1(c2cccc(N3Cc4c(cc(CN5CCc6ccccc6C5)cc4C(F)(F)F)C3=O)c2)COC1
IC50 [1]: < 100 nM | fold change (FC) [2]: >=7.5 | fold change (FC) [3]: 5 | fold change (FC) [4]: >=0.201 | fold change (FC) [5]: 1.31 | fold change (FC) [6]: 1.01 | fold change (FC) [7]: >=1.001

Structure (SMILES): Cn1cnnc1CC1(c2cccc(N3Cc4c(cccc4C(F)(F)F)C3=O)c2)CC(F)(F)C1
IC50 [1]: < 100 nM | fold change (FC) [2]: 5 | fold change (FC) [3]: 2.51 | fold change (FC) [4]: >=0.201 | fold change (FC) [5]: 1.01 | fold change (FC) [6]: 1.01 | fold change (FC) [7]: >=1.001

Structure (SMILES): Cn1cnnc1CC1(c2cccc(N3Cc4c(cc(N5CC(C(F)F)C5)cc4C(F)(F)F)C3=O)c2)COC1
IC50 [1]: < 100 nM | fold change (FC) [2]: 5 | fold change (FC) [3]: 2.51 | fold change (FC) [4]: 0.051 | fold change (FC) [5]: 1.01 | fold change (FC) [6]: 1.01 | fold change (FC) [7]: 0.801

Structure (SMILES): Cn1cnnc1CC1(c2cccc(N3Cc4c(cc(CN5CCCC5)nc4C4CC4)C3=O)c2)COC1
IC50 [1]: < 100 nM | fold change (FC) [2]: 2.51 | fold change (FC) [3]: 1.01 | fold change (FC) [4]: <=0.05 | fold change (FC) [5]: 1.01 | fold change (FC) [6]: 1.01 | fold change (FC) [7]: <=0.6

Structure (SMILES): Cn1cnnc1CC1(c2cccc(N3Cc4c(cc(CN5CCOCC5)cc4C(F)(F)F)C3=O)c2)COC1
IC50 [1]: < 100 nM | fold change (FC) [2]: >=7.5 | fold change (FC) [3]: 2.51 | fold change (FC) [4]: >=0.201 | fold change (FC) [5]: 1.31 | fold change (FC) [6]: 1.31 | fold change (FC) [7]: >=1.001

Structure (SMILES): Cc1cc(C(=O)Nc2cccc(C3(Cc4nocc4C)COC3)c2)nc(C2CC2)n1
IC50 [1]: < 100 nM | fold change (FC) [2]: >=7.5 | fold change (FC) [3]: >=7.5 | fold change (FC) [4]: >=0.201 | fold change (FC) [5]: 1.31 | fold change (FC) [6]: 1.31 | fold change (FC) [7]: >=1.001

Structure (SMILES): CC1C(C(F)(F)F)CCN1Cc1cc2c(c(C(F)(F)F)c1)CN(c1cccc(C3(Cc4nncn4C)COC3)c1)C2=O (stereo unspecified)
IC50 [1]: < 100 nM | fold change (FC) [2]: >=7.5 | fold change (FC) [3]: 5 | fold change (FC) [4]: 0.051 | fold change (FC) [5]: 1.31 | fold change (FC) [6]: 1.01 | fold change (FC) [7]: >=1.001

Structure (SMILES): CC(c1cc(C(=O)Nc2cccc(C3(Cc4nncn4C)COC3)c2)nc(C2CC2)n1)N1CCC2(CC2)C1 (single isomer, unassigned; 592a)
IC50 [1]: < 100 nM | fold change (FC) [2]: >=7.5 | fold change (FC) [3]: 5 | fold change (FC) [4]: >=0.201 | fold change (FC) [5]: 1.01 | fold change (FC) [6]: 1.01 | fold change (FC) [7]: >=1.001

Structure (SMILES): COc1cc(C(=O)Nc2cccc(C3(Cc4nncn4C)COC3)c2)nc(C2CC2)n1
IC50 [1]: < 100 nM | fold change (FC) [2]: >=7.5 | fold change (FC) [3]: 5 | fold change (FC) [4]: 0.151 | fold change (FC) [5]: 1.31 | fold change (FC) [6]: 1.01 | fold change (FC) [7]: >=1.001

Structure (SMILES): Cn1cnnc1CC1(c2cccc(N3Cc4c(cc(CN5CC[C@H](CO)C(F)(F)C5)cc4C(F)(F)F)C3=O)c2)COC1
IC50 [1]: < 100 nM | fold change (FC) [2]: >=7.5 | fold change (FC) [3]: >=7.5 | fold change (FC) [4]: 0.151 | fold change (FC) [5]: 1.31 | fold change (FC) [6]: 1.31 | fold change (FC) [7]: >=1.001

Now from value to compound, other results behind:

IC50 [1]: < 100 nM
Structure (SMILES): Cn1cnnc1CC1(c2cccc(N3Cc4c(ccnc4C(F)(F)F)C3=O)c2)COC1
fold change (FC) [2]: 1.01 | fold change (FC) [3]: 1.01 | fold change (FC) [4]: <=0.05 | fold change (FC) [5]: 1.01 | fold change (FC) [6]: 1.01 | fold change (FC) [7]: 0.601

IC50 [1]: < 100 nM
Structure (SMILES): Cn1cnnc1CC1(c2cccc(N3Cc4c(cc(CN5Cc6ccccc6C5)cc4C(F)(F)F)C3=O)c2)COC1
fold change (FC) [2]: >=7.5 | fold change (FC) [3]: 5 | fold change (FC) [4]: >=0.201 | fold change (FC) [5]: 1.31 | fold change (FC) [6]: 1.31 | fold change (FC) [7]: >=1.001

IC50 [1]: < 100 nM
Structure (SMILES): Cn1cnnc1CC1(c2cccc(NC(=O)c3csc(C(F)(F)F)n3)c2)COC1
fold change (FC) [2]: 1.01 | fold change (FC) [3]: 1.01 | fold change (FC) [4]: 0.051 | fold change (FC) [5]: 1.01 | fold change (FC) [6]: 1.01 | fold change (FC) [7]: 0.601

IC50 [1]: < 100 nM
Structure (SMILES): Cn1cnnc1CC1(c2cccc(N3Cc4c(cc(C(F)(F)CO)cc4C(F)(F)F)C3=O)c2)COC1
fold change (FC) [2]: 1.01 | fold change (FC) [3]: 1.01 | fold change (FC) [4]: 0.101 | fold change (FC) [5]: 1.01 | fold change (FC) [6]: 1.01 | fold change (FC) [7]: 0.801

IC50 [1]: < 100 nM
Structure (SMILES): CC1CN(c2cc3c(c(C(F)(F)F)c2)CN(c2cccc(C4(Cc5nncn5C)COC4)c2)C3=O)C1C (stereo unspecified)
fold change (FC) [2]: 2.51 | fold change (FC) [3]: 1.01 | fold change (FC) [4]: 0.051 | fold change (FC) [5]: 1.01 | fold change (FC) [6]: 1.01 | fold change (FC) [7]: 0.601

IC50 [1]: < 100 nM
Structure (SMILES): Cc1conc1CC1(c2cccc(NC(=O)c3cc(CN4CC[C@H](O)C4)nc(C4CC4)n3)c2)COC1
fold change (FC) [2]: >=7.5 | fold change (FC) [3]: >=7.5 | fold change (FC) [4]: >=0.201 | fold change (FC) [5]: 1.31 | fold change (FC) [6]: 1.31 | fold change (FC) [7]: >=1.001

IC50 [1]: < 100 nM
Structure (SMILES): Cn1cnnc1CC1(c2cccc(N3Cc4c(cc(CN5CCC(C)(C#N)CC5)cc4C(F)(F)F)C3=O)c2)COC1
fold change (FC) [2]: >=7.5 | fold change (FC) [3]: >=7.5 | fold change (FC) [4]: 0.151 | fold change (FC) [5]: 1.31 | fold change (FC) [6]: 1.31 | fold change (FC) [7]: >=1.001

IC50 [1]: < 100 nM
Structure (SMILES): Cn1cnnc1CC1(c2cccc(N3Cc4c(cc(CN5CCC[C@@H](F)C5)cc4C(F)(F)F)C3=O)c2)COC1
fold change (FC) [2]: >=7.5 | fold change (FC) [3]: >=7.5 | fold change (FC) [4]: >=0.201 | fold change (FC) [5]: 1.31 | fold change (FC) [6]: 1.31 | fold change (FC) [7]: >=1.001

IC50 [1]: < 100 nM
Structure (SMILES): Cn1cnnc1CC1(c2cccc(N3Cc4c(cc(CN5CCC(C)(F)C5)cc4C(F)(F)F)C3=O)c2)COC1 (stereo unspecified)
fold change (FC) [2]: >=7.5 | fold change (FC) [3]: >=7.5 | fold change (FC) [4]: >=0.201 | fold change (FC) [5]: 1.31 | fold change (FC) [6]: 1.31 | fold change (FC) [7]: >=1.001

IC50 [1]: < 100 nM
Structure (SMILES): Cn1cnnc1CC1(c2cccc(NC(=O)c3cc(N4CC(C(F)F)C4)nc(C4CC4)n3)c2)COC1
fold change (FC) [2]: >=7.5 | fold change (FC) [3]: 2.51 | fold change (FC) [4]: 0.101 | fold change (FC) [5]: 1.01 | fold change (FC) [6]: 1.01 | fold change (FC) [7]: 0.801

IC50 [1]: < 100 nM
Structure (SMILES): Cc1cc2c(c(C3CC3)n1)CN(c1cccc(C3(Cc4nncn4C)COC3)c1)C2=O
fold change (FC) [2]: 2.51 | fold change (FC) [3]: 1.01 | fold change (FC) [4]: 0.051 | fold change (FC) [5]: 1.31 | fold change (FC) [6]: 1.01 | fold change (FC) [7]: 0.801

IC50 [1]: < 100 nM
Structure (SMILES): Cn1cnnc1C[C@@]1(c2cccc(N3Cc4c(cc(CN5CCC6(CC6)C5)cc4C(F)(F)F)C3=O)c2)CCOC1
fold change (FC) [2]: >=7.5 | fold change (FC) [3]: 2.51 | fold change (FC) [4]: 0.101 | fold change (FC) [5]: 1.01 | fold change (FC) [6]: 1.01 | fold change (FC) [7]: 0.801
